# Legend:
# HL-60 = HL-60 differentiation potency; format: cell-based; conditions: Homo sapiens
# in vitro = conditions: human
structure (smiles),measurement,setting,value
"C[C@H]1[C@@H](OCc2ccc(C(=O)N[C@@H]3CCC[C@@H](C(=O)O)C3)cc2)O[C@@H]2O[C@@]3(C)CC[C@H]4[C@H](C)CC[C@@H]1[C@@]24OO3 [Compound 290, (1R,3R)-3-(4-((((3R,5aS,6R,8aS, 9R,10S,12R, 12aR)-3,6,9-trimethyldeca-hydro-12H-3,12-epoxy[1,2]dioxepino[4,3-i]isochromen-10-yl)oxy)methyl)benzamido) cyclohexane-1-carboxylic acid]",EC50,HL-60,0.0834 µM
same,IC50,in vitro,11.3 µM
"C[C@H]1[C@@H](Oc2ccc(CC(=O)N[C@H]3CC[C@H](C(=O)O)C3)cc2)O[C@@H]2O[C@@]3(C)CC[C@H]4[C@H](C)CC[C@@H]1[C@@]24OO3 [Compound 307, (1S,3S)-3-(2-(4-(((3R,5aS,6R,8aS, 9R,10S,12R, 12aR)-3,6,9-trimethyldeca-hydro-12H-3,12-epoxy[1,2]dioxepino[4,3-i]isochromen-10-yl)oxy)phenyl)acetamido) cyclopentane-1-carboxylic acid]",EC50,HL-60,0.0259 µM
same,IC50,in vitro,11.7 µM
"C[C@H]1[C@@H](O[C@H]2CC[C@@H](C(=O)N[C@H](C(=O)O)c3ccccc3)CC2)O[C@@H]2O[C@@]3(C)CC[C@H]4[C@H](C)CC[C@@H]1[C@@]24OO3 [Compound 189, (S)-2-phenyl-2-((1R,4R)-4-(((3R,5aS,6R,8aS, 9R,10S,12R, 12aR)-3,6,9-trimethyldeca-hydro-12H-3,12-epoxy[1,2]dioxepino[4,3-i]isochromen-10-yl)oxy)cyclo-hexane-1-carboxamido) acetic acid]",EC50,HL-60,1.89 µM
same,IC50,in vitro,15.2 µM
"CC(C)[C@H](NC(=O)c1ccc(O[C@H]2O[C@@H]3O[C@@]4(C)CC[C@H]5[C@H](C)CC[C@@H]([C@H]2C)[C@@]35OO4)cc1)C(=O)O [Compound 236, (4-(((3R,5aS,6R,8aS, 9R,10S,12R, 12aR)-3,6,9-trimethyldeca-hydro-12H-3,12-epoxy[1,2]dioxepino[4,3-i]isochromen-10-yl)oxy)benzoyl)-L-valine]",EC50,HL-60,0.0474 µM
same,IC50,in vitro,9.1 µM
"C[C@H]1[C@@H](Oc2ccc(C(=O)N[C@H]3CCC(=O)NC3=O)cc2)O[C@@H]2O[C@@]3(C)CC[C@H]4[C@H](C)CC[C@@H]1[C@@]24OO3 [Compound 198, N-((S)-2,6-dioxopiperidin-3-yl)-4-(((3R,5aS,6R,8aS, 9R,10S,12R, 12aR)-3,6,9-trimethyldeca-hydro-12H-3,12-epoxy[1,2]dioxepino[4,3-i]isochromen-10-yl)oxy)benzamide]",EC50,HL-60,0.0479 µM
same,IC50,in vitro,4 µM
"C[C@H]1[C@@H](Oc2ccc(OC3CCC(C(=O)O)C3)cc2)O[C@@H]2O[C@@]3(C)CC[C@H]4[C@H](C)CC[C@@H]1[C@@]24OO3 (stereo partly drawn) [Compound 227, 3-(4-(((3R,5aS,6R,8aS, 9R,10S,12R, 12aR)-3,6,9-trimethyldeca-hydro-12H-3,12-epoxy[1,2]dioxepino[4,3-i]isochromen-10-yl)oxy)phenoxy) cyclopentane-1-carboxylic acid]",EC50,HL-60,0.0329 µM
same,IC50,in vitro,0.7 µM
"C[C@H]1[C@@H](OCc2c(F)cc(C(=O)O)cc2Cl)O[C@@H]2O[C@@]3(C)CC[C@H]4[C@H](C)CC[C@@H]1[C@@]24OO3 [Compound 215, 3-chloro-5-fluoro-4-((((3R,5aS,6R,8aS, 9R,10S,12R, 12aR)-3,6,9-trimethyldeca-hydro-12H-3,12-epoxy[1,2]dioxepino[4,3-i]isochromen-10-yl)oxy)methyl) benzoic acid]",EC50,HL-60,0.0665 µM
same,IC50,in vitro,5.51 µM
"C[C@H]1[C@@H](OC[C@H]2CC[C@@H](C(=O)N[C@H](C(=O)O)C(C)(C)C)CC2)O[C@@H]2O[C@@]3(C)CC[C@H]4[C@H](C)CC[C@@H]1[C@@]24OO3 [Compound 242, (S)-3,3-dimethyl-2-((1R,4R)-4-((((3R,5aS,6R,8aS, 9R,10S,12R, 12aR)-3,6,9-trimethyldeca-hydro-12H-3,12-epoxy[1,2]dioxepino[4,3-i]isochromen-10-yl)oxy)methyl)cyclohexane-1-carboxamido) butanoic acid]",EC50,HL-60,0.0213 µM
same,IC50,in vitro,1.27 µM
"C[C@H]1[C@@H](OCC23[C@H]4[C@H]5[C@@H]2[C@H]2[C@@H]3[C@@H]4C52C(=O)O)O[C@@H]2O[C@@]3(C)CC[C@H]4[C@H](C)CC[C@@H]1[C@@]24OO3 (stereo partly drawn) [Compound 253, (2S,3S,5S,6S,7S, 8S)-4-((((3R,5aS,6R,8aS, 9R,10S,12R, 12aR)-3,6,9-trimethyldeca-hydro-12H-3,12-epoxy[1,2]dioxepino[4,3-i]isochromen-10-yl)oxy)methyl) cubane-1-carboxylic acid]",EC50,HL-60,0.237 µM
same,IC50,in vitro,> 20 µM
"C[C@H]1[C@@H](O[C@H]2CC[C@@H](C(=O)N[C@@H](CC(F)(F)F)C(=O)O)CC2)O[C@@H]2O[C@@]3(C)CC[C@H]4[C@H](C)CC[C@@H]1[C@@]24OO3 [Compound 237, (S)-4,4,4-trifluoro-2-((1R,4R)-4-(((3R,5aS,6R,8aS, 9R,10S,12R, 12aR)-3,6,9-trimethyldeca-hydro-12H-3,12-epoxy[1,2]dioxepino[4,3-i]isochromen-10-yl)oxy)cyclo-hexane-1-carboxamido) butanoic acid]",EC50,HL-60,7.26 µM
same,IC50,in vitro; HL-60 cells,> 20 µM
"C[C@H]1[C@@H](OCc2c(Cl)cc(C(=O)O)cc2S(C)(=O)=O)O[C@@H]2O[C@@]3(C)CC[C@H]4[C@H](C)CC[C@@H]1[C@@]24OO3 [Compound 216, 3-chloro-5-(methylsulfonyl)-4-((((3R,5aS,6R,8aS, 9R,10S,12R, 12aR)-3,6,9-trimethyldeca-hydro-12H-3,12-epoxy[1,2]dioxepino[4,3-i]isochromen-10-yl)oxy)methyl) benzoic acid]",EC50,HL-60,7.18 µM
same,IC50,in vitro,> 20 µM
"C[C@H]1[C@@H](OC/C=C/[C@]2(F)CC[C@H](C(=O)O)CC2)O[C@@H]2O[C@@]3(C)CC[C@H]4[C@H](C)CC[C@@H]1[C@@]24OO3 [Compound 271, (1S,4r)-4-fluoro-4-((E)-3-(((3R,5aS,6R,8aS, 9R,10S,12R, 12aR)-3,6,9-trimethyldeca-hydro-12H-3,12-epoxy[1,2]dioxepino[4,3-i]isochromen-10-yl)oxy)prop-1-en-1-yl) cyclohexane-1-carboxylic acid]",EC50,HL-60,0.0924 µM
same,IC50,in vitro,19.1 µM
"C[C@H]1[C@@H](Oc2ccc([C@H](N)C(=O)O)cc2)O[C@@H]2O[C@@]3(C)CC[C@H]4[C@H](C)CC[C@@H]1[C@@]24OO3 [Compound 194, (S)-2-amino-2-(4-(((3R,5aS,6R,8aS, 9R,10S,12R, 12aR)-3,6,9-trimethyldeca-hydro-12H-3,12-epoxy[1,2]dioxepino[4,3-i]isochromen-10-yl)oxy)phenyl) acetic acid]",EC50,HL-60,17.7 µM
same,IC50,in vitro,> 20 µM
"C[C@H]1[C@@H](Oc2ccc([C@H](C)C(=O)O)cc2F)O[C@@H]2O[C@@]3(C)CC[C@H]4[C@H](C)CC[C@@H]1[C@@]24OO3 [Compound 282, (S)-2-(3-fluoro-4-(((3R,5aS,6R,8aS, 9R,10S,12R, 12aR)-3,6,9-trimethyldeca-hydro-12H-3,12-epoxy[1,2]dioxepino[4,3-i]isochromen-10-yl)oxy)phenyl) propanoic acid]",EC50,HL-60,0.0127 µM
same,IC50,in vitro,4.82 µM
"C[C@H]1[C@@H](Oc2ccc(CC(=O)N[C@H]3C[C@@H](C(=O)O)C3)cc2)O[C@@H]2O[C@@]3(C)CC[C@H]4[C@H](C)CC[C@@H]1[C@@]24OO3 [Compound 292, (1R,3s)-3-(2-(4-(((3R,5aS,6R,8aS, 9R,10S,12R, 12aR)-3,6,9-trimethyldeca-hydro-12H-3,12-epoxy[1,2]dioxepino[4,3-i]isochromen-10-yl)oxy)phenyl)acetamido) cyclobutane-1-carboxylic acid]",EC50,HL-60,0.0429 µM
same,IC50,in vitro; HL-60 cells,> 20 µM
"C[C@H]1[C@@H](Oc2ccc(C(=O)N[C@H](C(=O)O)C(C)(C)O)cc2)O[C@@H]2O[C@@]3(C)CC[C@H]4[C@H](C)CC[C@@H]1[C@@]24OO3 [Compound 254, (S)-3-hydroxy-3-methyl-2-(4-(((3R,5aS,6R,8aS, 9R,10S,12R, 12aR)-3,6,9-trimethyldeca-hydro-12H-3,12-epoxy[1,2]dioxepino[4,3-i]isochromen-10-yl)oxy)benzamido) butanoic acid]",EC50,HL-60,4.58 µM
same,IC50,in vitro,> 20 µM
"C[C@H]1[C@@H](Oc2ccc(C(=O)N[C@H](C(=O)O)c3ccccc3)cc2)O[C@@H]2O[C@@]3(C)CC[C@H]4[C@H](C)CC[C@@H]1[C@@]24OO3 [Compound 234, (S)-2-phenyl-2-(4-(((3R,5aS,6R,8aS, 9R,10S,12R, 12aR)-3,6,9-trimethyldeca-hydro-12H-3,12-epoxy[1,2]dioxepino[4,3-i]isochromen-10-yl)oxy)benzamido) acetic acid]",EC50,HL-60,0.112 µM
same,IC50,in vitro,1.27 µM
"C[C@H]1[C@@H](O[C@H]2CC[C@@H](C(=O)N[C@H](C(=O)O)C(C)(C)O)CC2)O[C@@H]2O[C@@]3(C)CC[C@H]4[C@H](C)CC[C@@H]1[C@@]24OO3 [Compound 249, (S)-3-hydroxy-3-methyl-2-((1R,4R)-4-(((3R,5aS,6R,8aS, 9R,10S,12R, 12aR)-3,6,9-trimethyldeca-hydro-12H-3,12-epoxy[1,2]dioxepino[4,3-i]isochromen-10-yl)oxy)cyclo-hexane-1-carboxamido) butanoic acid]",EC50,HL-60,20 µM
same,IC50,in vitro,> 20 µM
"C[C@H]1[C@@H](OC/C=C/[C@@H]2CCC[C@H](C(=O)O)C2)O[C@@H]2O[C@@]3(C)CC[C@H]4[C@H](C)CC[C@@H]1[C@@]24OO3 [Compound 269, (1S,3R)-3-((E)-3-(((3R,5aS,6R,8aS, 9R,10S,12R, 12aR)-3,6,9-trimethyldeca-hydro-12H-3,12-epoxy[1,2]dioxepino[4,3-i]isochromen-10-yl)oxy)prop-1-en-1-yl) cyclohexane-1-carboxylic acid]",EC50,HL-60,0.143 µM
same,IC50,in vitro,7.33 µM
"C[C@H]1[C@@H](Oc2ccc(C(=O)N[C@H]3CC[C@@H](C(=O)O)C3)cc2Cl)O[C@@H]2O[C@@]3(C)CC[C@H]4[C@H](C)CC[C@@H]1[C@@]24OO3 [Compound 232, (1R,3S)-3-(3-chloro-4-(((3R,5aS,6R,8aS, 9R,10S,12R, 12aR)-3,6,9-trimethyldeca-hydro-12H-3,12-epoxy[1,2]dioxepino[4,3-i]isochromen-10-yl)oxy)benzamido)cyclo-pentane-1-carboxylic acid]",EC50,HL-60,0.0299 µM
same,IC50,in vitro,0.62 µM

# — patent US20260242391A1 (priority 2023, published 2026)
